Patent US20220071947A1, “PHARMACEUTICAL APPLICATION OF DIMYRICETIN-BASED DISELENIDE” (Shanghai Spark Pharmaceutical Co., Ltd., priority 2020, published 2022)
In brackets after ≈: the same amount, converted by molar mass. Where two headings read alike, the source gives them in different places.

Experiments:
[1] = test system: MGC80-3(MGC-803) human gastric cancer cells; test: CCK-8 in vitro anti-tumor screening, human gastric cancer cells; assay type: cell-based; conditions: 24 h
Procedure: (§1) In vitro screening of the efficacy of dimyricetin-based diselenide on 7 different human tumor cells (HEP3B2.1.7, NCI-H460, CALU-3, SW480, SIHA, PC-3, MGC80-3) was performed. Using the CCK-8 detection method, 10 drug concentrations was designed, and each concentration was arranged in 3 re-holes. […], 24 h, 48 h, and 72 h, was selected according to dynamic microscopy. The positive drug was cisplatin. Cisplatin concentration gradient designed: 0 (i.e., the solvent control group), 1 μM, 5 μM, 10 μM, 20 μM, 40 μM, 60 μM, 80 μM, 100 μM, 135 μM. Dimyricetin-based diselenide drug concentration gradient designed: 0 (i.e., solvent control group), 1 μg/ml, 5 μg/ml, 25 μg/ml, 50 μg/ml, 75 μg/ml, 100 μg/ml, 125 μg/ml, 150 μg/ml, 200 μg/ml.
(§2) Step 1. Cell culture. […]
(§3) Step 3. […] Step 3-4, measuring the absorbance value: a microplate reader was used to measure the 450 nm absorbance value, and the inhibitory rate of the drug on the cells was calculated according to the formula. […]
(§4) Experimental group: the absorbance value of the cells and CCK-8 solution in the experimental group
(§5) Negative control: the absorbance value of control cells and CCK-8 solution
(§6) Blank control: absorbance value of medium and CCK-8 solution […]

[2] = test system: PC-3 human prostate cancer cells; test: CCK-8 in vitro anti-tumor screening, human prostate cancer cells; assay type: cell-based; conditions: pc-3 cells
Procedure: as §1, §2, §3, §4, §5, §6

[3] = test system: NCI-H460 human lung cancer cells (large cell lung cancer); test: CCK-8 in vitro anti-tumor screening, human lung cancer cells (large cell lung cancer); assay type: cell-based
Procedure: as §1, §2, §3, §4, §5, §6

[4] = test system: Siha human cervical squamous cell carcinoma cells; test: CCK-8 in vitro anti-tumor screening, human cervical squamous cell carcinoma cells; assay type: cell-based
Procedure: as §1, §2, §3, §4, §5, §6

[5] = test system: SW480 primary colorectal cancer cells; test: CCK-8 in vitro anti-tumor screening, primary colorectal cancer cells; assay type: cell-based, human
Procedure: as §1, §2, §3, §4, §5, §6

[6] = test system: HEP3B2.1.7 human liver cancer cells; test: CCK-8 in vitro anti-tumor screening, human liver cancer cells; assay type: cell-based; conditions: HEP3B cells
Procedure: as §1, §2, §3, §4, §5, §6

[7] = test system: Calu-3 human lung adenocarcinoma cells (pleural effusion); test: CCK-8 in vitro anti-tumor screening, human lung adenocarcinoma cells (pleural effusion); assay type: cell-based; conditions: calu-3 cells, 24 h
Procedure: as §1, §2, §3, §4, §5, §6

2019-nCoV-M^pro protease = 2019-nCoV-M^pro protease (Severe acute respiratory syndrome coronavirus 2, UniProt P0DTD1); test: M^pro protease activity inhibition, fluorescence resonance energy transfer method; assay type: biochemical; conditions: 30 nM protease, 20 μM substrate, 10 min preincubation at 30° C.
Source text: This example was the detection of M^pro protease activity inhibition of the targeted 2019-nCoV virus.
The mechanism is: after the new coronavirus invades the cell, it will use the host cell to synthesize two ultra-long replicase polypeptides (pp1a and pp1ab) necessary for self-replication. The replicase polypeptide needs to be further cut into multiple proteins (such as RdRp, helicase, etc.), and then assembled into the replication and transcription machinery required for the virus to initiate the replication of its own genetic material. M^pro has at least 11 cleavage sites on the replicase polypeptide. […]
The fluorescence resonance energy transfer method was used to evaluate the inhibitory activity of dimyricetin-based diselenide on 2019-nCoV-M^pro protease.
Specific detection method: the volume of the entire enzymatic reaction system is 120 μL, the final concentration of protease is 30 nM, and the final concentration of substrate is 20 μM. […] The substrate was added and quickly placed in the microplate reader for reading. […] The test time is 10 min, and the fluorescence value is read every 30 seconds. The final result is the first 2 minutes reading to fit the reaction rate, and compared with the control group (DMSO) to calculate the inhibition rate.

Structure (SMILES)	IC50 ([1]; MGC803 cells) [µM]	IC50 ([2]; 48 h) [µM]	IC50 ([3]; 48 h) [µM]	IC50 ([4]; 48 h) [µM]	IC50 ([5]; 48 h) [µM]	IC50 ([6]; 48 h) [µM]	IC50 ([1]; Homo sapiens, MGC-803, MGC803 cells) [µg/mL]	IC50 ([2]; Homo sapiens, 24 h) [µg/mL]	IC50 ([3]; Homo sapiens, NCI-H460, 24 h) [µg/mL]	IC50 ([4]; Homo sapiens, 24 h) [µg/mL]	IC50 ([5]; Homo sapiens, 24 h) [µg/mL]	IC50 ([6]; Homo sapiens, 24 h) [µg/mL]	IC50 [7] [µg/mL]	IC50 (2019-nCoV-M^pro protease; read-out: IC50) [µM]	IC50 (2019-nCoV-M^pro protease; read-out: IC50 (μg/ml) (converted)) [µM]
N.N.[Cl][Pt][Cl] [Cisplatin, cisplatin, reference compound]	23.2	45.7	47.4	65.5	46.7	8.83	–	–	–	–	–	–	–	–	–
O=c1c(O)c(-c2cc(O)c(O)c(O)c2)oc2c([Se][Se]c3c(O)cc(O)c4c(=O)c(O)c(-c5cc(O)c(O)c(O)c5)oc34)c(O)cc(O)c12 [Dimyricetin-based diselenide, 8,8′-diselanediylbis(3,5,7-trihydroxy-2-(3,4,5-trihydroxyphenyl)-4H-1-benzopyran-4-one)]	–	–	–	–	–	–	9.08	7.72	27.9	19.1	12.4	25.2	22.9 (≈ 29 µM)	0.807 ± 0.083	0.806
